Assay results published in US9115081B2, “Synthetic process for aminocyclohexyl ether compounds” (Cardiome Pharma Corp., priority 2004, dated 2015).

Test system: sustained AF maintained during continuous vagal nerve stimulation
Experiment: Canine vagal-AF model: termination of sustained AF by drug infused IV
Format: in vivo, dog
Settings: for Effective doses for terminating AF: anesthetized mongrel dogs, IV over 5 min, cell format number of dogs-dose
Description: Mongrel dogs of either sex weighing 15-49 kg are anesthetized with morphine (2 mg/kg im initially, followed by 0.5 mg/kg IV every 2 h) and α-chloralose (120 mg/kg IV followed by an infusion of 29.25 mg/kg/h; St.-Georges et al., 1997). Dogs are ventilated mechanically with room air supplemented with oxygen via an endotracheal tube at 20 to 25 breaths/minute with a tidal volume obtained from a nomogram. Arterial blood gases are measured and kept in the physiological range (SAO2>90%, pH 7.30-7.45). Catheters are inserted into the femoral artery for blood pressure recording and blood gas measurement, and into both femoral veins for drug administration and venous sampling. Catheters are kept patent with heparinized 0.9% saline solution. Body temperature is maintained at 37-40° C. with a heating blanket.
The heart is exposed via a medial thoracotomy and a pericardial cradle is created. Three bipolar stainless steel, Teflon™-coated electrodes are inserted into the right atria for recording and stimulation, and one is inserted into the left atrial appendage for recording. A programmable stimulator (Digital Cardiovascular Instruments, Berkeley, Calif.) is used to stimulate the right atrium with 2 ms, twice diastolic threshold pulses. Two stainless steel, Teflon™-coated electrodes are inserted into the left ventricle, one for recording and the other for stimulation. […]
Drug effects to terminate sustained AF maintained during continuous vagal nerve stimulation are assessed. […] The vagal stimulation voltage is adjusted under control conditions, and then readjusted after each treatment to maintain the same bradycardic effect. […]
Diastolic threshold current is determined at a basic cycle length of 300 ms by increasing the current 0.1 mA incrementally until stable capture is obtained. […] Atrial and ventricular ERP is measured with the extrastimulus method, over a range of S1S2 intervals at a basic cycle length of 300 ms. […] Diastolic threshold and ERP are determined in duplicate and averaged to give a single value. […]

O=C(NCC1CCCCN1)c1cc(OCC(F)(F)F)ccc1OCC(F)(F)F (stereo not drawn) [Flecainide]
Effective doses for terminating AF (AF terminated at this dose in 1 dog): 10 µmol/kg
Effective doses for terminating AF (AF terminated at this dose in 4 dogs): 2.5 µmol/kg
Effectiveness as a control in terminating vagal AF (control in the present study, compared with earlier reports): comparable to that previously reported
